# Laboratory results: US5847153A, “β-sulfonyl hydroxamic acids” (Pharmacia & Upjohn Company, priority 1997, dated 1998)
# Experiments:
# Gelatinase = assay: in vitro particle concentration fluorescence assay, inhibition of gelatinase; type: biochemical; conditions: pH 7.5, room temperature, read-out: Gelatinase Ki (MMP Inhibition Constants)
# Experimental: (§1) Inhibitory activity is evaluated in one or more of the MMP enzymes (stromelysin, gelatinase, and collagenase) in vitro using particle concentration fluorescence assay. An inhibitor binds to MMP enzymes which prevents the degradation of a substrate by stromelysin, gelatinase, or collagenase. The substrate has attached to it a fluorescein and a biotin moiety. The intact substrate then binds to an avidin-coated particle via the biotin moiety. Once the particle is washed and dried, a fluorescent signal is generated since the fluorescent group is attached to the particle. Without an inhibitor present, the substrate is degraded by MMP enzymes and the fluorescein group is removed, therefore, no fluorescent signal can be detected. Testing compounds are dissolved in DMSO to the desired concentration, then the solutions are diluted to 1:5 with MMP buffer (50 mM Tris-HCl, pH 7.5; 150 mM NaCl; 0.02% NaN3). Serial two-fold dilutions of each compound are prepared. A concentrated, activated enzyme solution is transferred into each plate of the testing compounds, and the mixture is incubated at room temperature for 15 minutes. Thawed MMP substrate is then added into all plates, and the plates are incubated in the dark for 1-3 hours at room temperature. At this point, the substrate mixture is mixed with 0.1% avidin-coated polystyrene particles. After 15 minutes, the fluorescence values are measured following filtration and washing of the beads. Ki values are then calculated.
# Stromelysin = Stromelysin (Homo sapiens, UniProt P08254); assay: in vitro particle concentration fluorescence assay, inhibition of stromelysin; type: biochemical; conditions: pH 7.5, room temperature, read-out: Stromelysin Ki (MMP Inhibition Constants)
# Experimental: as §1
# Chain of Stromelysin (P08254 100-477): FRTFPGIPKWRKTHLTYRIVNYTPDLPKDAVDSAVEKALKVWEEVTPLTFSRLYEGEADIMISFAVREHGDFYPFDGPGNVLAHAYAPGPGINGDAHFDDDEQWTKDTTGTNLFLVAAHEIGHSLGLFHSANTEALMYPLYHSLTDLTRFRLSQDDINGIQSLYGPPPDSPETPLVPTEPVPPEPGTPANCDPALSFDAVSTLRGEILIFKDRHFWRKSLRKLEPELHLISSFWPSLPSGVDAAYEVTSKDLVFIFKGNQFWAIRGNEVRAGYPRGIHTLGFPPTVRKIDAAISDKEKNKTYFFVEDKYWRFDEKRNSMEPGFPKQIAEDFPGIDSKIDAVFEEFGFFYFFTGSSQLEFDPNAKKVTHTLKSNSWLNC
SMILES,Ki (Gelatinase) [nM],Ki (Stromelysin) [nM]
"COc1ccc(S(=O)(=O)CC(Cc2ccccc2)C(=O)NO)cc1 (stereo not drawn) [Example 1, N-hydroxy 2-[(4-methoxybenzenesulfonyl)methyl]-3-phenyl-propionamide]",9.2,49
"CCCCOc1ccc(S(=O)(=O)CC(CN2C(=O)CN(CCCC)C2=O)C(=O)NO)cc1 (stereo not drawn) [Example 14, N-hydroxy-2-[methyl-3-(1-butylhydantoin)]-3-(4-butoxybenzenesulfonyl)-propionamide]",0.092,1.8
"COc1ccc(S(=O)(=O)CCCC(CS(=O)(=O)c2ccc(OC)cc2)C(=O)NO)cc1 (stereo not drawn) [Example 11, N-hydroxy-2-[(4-methoxybenzenesulfonyl)-methyl]-5-(4-methoxybenzenesulfonyl)-pentanamide]",1,1
"COc1ccc(S(=O)(=O)CC(CN2C(=O)CN(C)C2=O)C(=O)NO)cc1 (stereo not drawn) [Example 13, N-hydroxy-2-[methyl-3-(1-methylhydantoin)]-3-(4-methoxybenzenesulfonyl)-propionamide]",1.3,17
"O=C(NO)C(Cc1ccccc1)CS(=O)(=O)c1ccccc1 (stereo not drawn) [Example 2, N-hydroxy 2-[(benzenesulfonyl)methyl]-3-phenyl-propionamide]",87,1100
"COc1ccc(S(=O)(=O)CC(CS(=O)(=O)c2ccc(OC)cc2)C(=O)NO)cc1 [Example 4, N-hydroxy-2-[(4-methoxybenzene-sulfonyl)methyl]-3-(4-methoxybenzenesulfonyl)-propionamide]",0.19,3.9
"CCCCCCCCS(=O)(=O)CC(CS(=O)(=O)c1ccc(OC)cc1)C(=O)NO (racemic) [Example 12, N-hydroxy-2-(n-octylsulfonylmethyl)-3-(4-methoxybenzenesulfonyl)-propionamide]",0.82,5.4
"O=C(NO)C(CS(=O)(=O)c1ccc(Cl)cc1)CS(=O)(=O)c1ccc(Cl)cc1 [Example 5, N-hydroxy-2-[(4-chlorobenzenesulfonyl)methyl]-3-(4-chlorobenzenesulfonyl)-propionamide]",1.9,72
"CC(CS(=O)(=O)c1ccccc1)C(=O)NO (stereo not drawn) [Example 3, N-hydroxy 2-[(benzenesulfonyl)methyl]-propionamide]",81,3600
"CCCCCCCCS(=O)(=O)CC(CS(=O)(=O)CCCCCCCC)C(=O)NO [Example 8, N-hydroxy-2-[(n-octylsulfonyl)methyl]-3-(n-octylsulfonyl)-propionamide]",190,440
"Cc1ccc(S(=O)(=O)CC(CS(=O)(=O)c2ccc(C)cc2)C(=O)NO)cc1 [Example 9, N-hydroxy-2-[(4-methylbenzenesulfonyl)methyl]-3-(4-methylbenzenesulfonyl)-propionamide]",3.8,130
"CCCCS(=O)(=O)CC(CS(=O)(=O)CCCC)C(=O)NO [Example 7, N-hydroxy-2-[(n-butylsulfonyl)methyl]-3-(n-butylsulfonyl)-propionamide]",350,1000
"O=C(NO)C(CS(=O)(=O)c1ccccc1)CS(=O)(=O)c1ccccc1 [Example 10, N-hydroxy-2-[(benzenesulfonyl)methyl]-3-(benzenesulfonyl)-propionamide]",8,160
"O=C(NO)C(CS(=O)(=O)c1ccc(Br)cc1)CS(=O)(=O)c1ccc(Br)cc1 [Example 6, N-hydroxy-2-[(4-bromobenzenesulfonyl)methyl]-3-(4-bromobenzenesulfonyl)-propionamide]",2.5,92
"CCCCN1CC(=O)N(CC(CS(=O)(=O)c2ccc(OC)cc2)C(=O)NO)C1=O (stereo not drawn) [Example 15, N-hydroxy-2-[methyl-3-(1-butylhydantoin)]-3-(4-methoxybenzenesulfonyl)-propionamide]",0.34,9
